# From paper PMC6979384, “Characterization of the plant homeodomain (PHD) reader family for their histone tail interactions” (Epigenetics & Chromatin, 2020)
# Assays:
# Assay in all cases: Histone peptide microarray
# Assay type in all cases: binding, human
# MLL5 = conditions: MLL5, GST-tagged; arrays performed twice, n of 4
# How it was run: (§1)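 Mean ± SD of 4 replicate array intensities; GST-PHD finger at 0.5 μM against 293 PTM-bearing histone peptides.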
# PHF8 = conditions: PHF8, GST-tagged; arrays performed twice, n of 4
# How it was run: as §1
# KDM4C (TTP) = conditions: KDM4C (TTP), GST-tagged; arrays performed twice, n of 4
# How it was run: as §1
# DPF2 (PPC2W2) = conditions: DPF2 (PPC2W2), GST-tagged; arrays performed twice, n of 4
# How it was run: as §1
# SP140L = conditions: SP140L, GST-tagged; arrays performed twice, n of 4
# How it was run: as §1
# PHF23 = conditions: PHF23, GST-tagged; arrays performed twice, n of 4
# How it was run: as §1
# KDM7A = conditions: KDM7A, GST-tagged; arrays performed twice, n of 4
# How it was run: as §1
# MORC3 (CW) = conditions: MORC3 (CW), GST-tagged; arrays performed twice, n of 4
# How it was run: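 Readout is array binding signal, reported as the mean and standard deviation over four replicates. Each purified GST-fused PHD domain was incubated at 0.5 μM with a library of 293 modified histone peptides.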
# PHRF1 (RP) = conditions: PHRF1 (RP), GST-tagged; arrays performed twice, n of 4
# How it was run: as §1
# CHD5 (PCC) = conditions: CHD5 (PCC), GST-tagged; arrays performed twice, n of 4
# How it was run: as §1
# KDM5A (3) = conditions: KDM5A (3), GST-tagged; arrays performed twice, n of 4
# How it was run: as §1
# TAF3 = conditions: TAF3, GST-tagged; arrays performed twice, n of 4
# How it was run: as §1
# TRIM66 (PB) = conditions: TRIM66 (PB), GST-tagged; arrays performed twice, n of 4
# How it was run: as §1
# ING2 = conditions: ING2, GST-tagged; arrays performed twice, n of 4
# How it was run: as §1
# PHF21A = conditions: PHF21A, GST-tagged; arrays performed twice, n of 4
# How it was run: as §1
# PHF13 = conditions: PHF13, GST-tagged; arrays performed twice, n of 4
# How it was run: as §1
# DIDO1 = conditions: DIDO1, GST-tagged; arrays performed twice, n of 4
# How it was run: as §1
# KDM5B (3) = conditions: KDM5B (3), GST-tagged; arrays performed twice, n of 4
# How it was run: as §1
# ING1 = conditions: ING1, GST-tagged; arrays performed twice, n of 4
# How it was run: as §1
# KDM5A (1) = conditions: KDM5A (1), GST-tagged; arrays performed twice, n of 4
# How it was run: as §1
# ING5 = conditions: ING5, GST-tagged; arrays performed twice, n of 4
# How it was run: as §1
# AIRE (PP) = conditions: AIRE (PP), GST-tagged; arrays performed twice, n of 4
# How it was run: as §1
# ING3 = conditions: ING3, GST-tagged; arrays performed twice, n of 4
# How it was run: as §1
# CHD5 (PPCC) = conditions: CHD5 (PPCC), GST-tagged; arrays performed twice, n of 4
# How it was run: as §1
# CHD4 (PPCC) = conditions: CHD4 (PPCC), GST-tagged; arrays performed twice, n of 4
# How it was run: as §1
# BPTF (PB) = conditions: BPTF (PB), GST-tagged; arrays performed twice, n of 4
# How it was run: as §1
# KDM5B (1) = conditions: KDM5B (1), GST-tagged; arrays performed twice, n of 4
# How it was run: as §1
# BAZ2B = conditions: BAZ2B, GST-tagged; arrays performed twice, n of 4
# How it was run: as §1
# RAG2 = conditions: RAG2, GST-tagged; arrays performed twice, n of 4
# How it was run: as §1
# PHF2 = conditions: PHF2, GST-tagged; arrays performed twice, n of 4
# How it was run: as §1
# ING4 = conditions: ING4, GST-tagged; arrays performed twice, n of 4
# How it was run: as §1
substance,measurement,setting,value
H4K5me1: H4 1-23 [Peptide H4K5me1],Array Heatmap value (peptide array binding signal),MLL5,0.6366
same,Array Heatmap value (peptide array binding signal),PHF8,0.4273
same,Array Heatmap value (peptide array binding signal),KDM4C (TTP),0.5708
same,Array Heatmap value (peptide array binding signal),DPF2 (PPC2W2),0.7706
same,Array Heatmap value (peptide array binding signal),SP140L,0.3991
same,Array Heatmap value (peptide array binding signal),PHF23,0.6043
same,Array Heatmap value (peptide array binding signal),KDM7A,0.4052
same,Array Heatmap value (peptide array binding signal),MORC3 (CW),0.4265
same,Array Heatmap value (peptide array binding signal),PHRF1 (RP),0.5306
same,Array Heatmap value (peptide array binding signal),CHD5 (PCC),0.8576
same,Array Heatmap value (peptide array binding signal),KDM5A (3),0.517
same,Array Heatmap value (peptide array binding signal),TAF3,0.3308
same,Array Heatmap value (peptide array binding signal),TRIM66 (PB),0.6456
same,Array Heatmap value (peptide array binding signal),ING2,0.6422
same,Array Heatmap value (peptide array binding signal),PHF21A,0.5236
same,Array Heatmap value (peptide array binding signal),PHF13,0.7061
same,Array Heatmap value (peptide array binding signal),DIDO1,0.8543
same,Array Heatmap value (peptide array binding signal),KDM5B (3),0.5457
same,Array Heatmap value (peptide array binding signal),ING1,0.6473
same,Array Heatmap value (peptide array binding signal),KDM5A (1),0.5517
same,Array Heatmap value (peptide array binding signal),ING5,0.4376
same,Array Heatmap value (peptide array binding signal),AIRE (PP),0.4948
same,Array Heatmap value (peptide array binding signal),ING3,0.5888
same,Array Heatmap value (peptide array binding signal),CHD5 (PPCC),0.6548
same,Array Heatmap value (peptide array binding signal),CHD4 (PPCC),0.6385
same,Array Heatmap value (peptide array binding signal),BPTF (PB),0.4183
same,Array Heatmap value (peptide array binding signal),KDM5B (1),0.6332
same,Array Heatmap value (peptide array binding signal),BAZ2B,0.543
same,Array Heatmap value (peptide array binding signal),RAG2,0.3031
same,Array Heatmap value (peptide array binding signal),PHF2,0.6413
same,Array Heatmap value (peptide array binding signal),ING4,0.5451
